# Data from publication PMC12948427 (The Journal of Clinical Investigation, 2025).
# pIC50: −log10 of the molar value. Where “and” joins values, the source holds several entries; their conditions need not be identical. Identical values can stand only once. Like-named read-outs stand apart in the source and are kept apart here. Ends that are not written are not given here.
# Assays:
# MHV [1] = tested on: MHV
# hHgs 1-390 protein [2] = target: T1, hHgs 1-390 protein (Homo sapiens, UniProt O14964); experiment: biochemical
# hHgs 1-390 protein [3] = target: T1, hHgs 1-390 protein
# M protein = experiment: BFA treatment and washout: ER export of M protein in 17Cl-1 cells; type: cell-based; settings: for Colocalization of M protein with ERGIC53 / Colocalization of M protein with SEC61B: individual replicate values, Figure S5A; for ERGIC53 (colocalization value, Figure S5B) / SEC61B (colocalization value, Figure S5B): individual replicates
# Experimental: 70–80% confluent 17Cl-1 cells were treated with 5 µg/mL final BFA (Catalog no #HY-
# 16592; MCE) for 40 min at 37°C. BFA was washed out by three brief rinses in PBS and
# cells were then incubated at 37°C for 5 h before fixation with 4% PFA.
# MHV [4] = type: cell-based, mouse hepatitis virus (MHV); settings: RTB 0 uM
# SARS-CoV-2 Omicron BA.5 = type: in vivo, K18-hACE2 C57BL/6 mice
# MHV [5] = tested on: MHV; parameters: species or system C57BL/6JGpt mice; settings: in vivo
# in vitro [6] = settings: Vero E6 cells, cell viability, Figure S7F
# in vitro [7] = settings: mouse, 17Cl-1 cells, cell viability, Figure S7E
# in vitro [8] = settings: human, Calu-3 cells, cell viability, Figure S7G
# T1 sequence (O14964 1-390): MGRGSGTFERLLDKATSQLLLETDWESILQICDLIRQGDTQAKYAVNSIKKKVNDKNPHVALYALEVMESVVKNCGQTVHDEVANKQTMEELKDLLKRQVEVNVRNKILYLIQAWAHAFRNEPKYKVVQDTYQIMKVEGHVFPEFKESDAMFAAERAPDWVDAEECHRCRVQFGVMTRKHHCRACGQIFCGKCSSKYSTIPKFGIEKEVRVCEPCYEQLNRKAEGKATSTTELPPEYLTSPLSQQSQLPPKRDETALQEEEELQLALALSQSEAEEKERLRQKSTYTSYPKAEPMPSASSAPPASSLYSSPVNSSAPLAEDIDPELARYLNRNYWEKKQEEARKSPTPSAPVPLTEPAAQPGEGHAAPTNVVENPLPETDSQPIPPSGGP
compound,measurement,setting,value
COc1ccc(N)cn1 [5-amino-2 methoxypyridine],"cell viability, Figures S9A, B, D-F",17Cl-1 cells; concentration 0.01,100
same,"cell viability, Figures S9A, B, D-F",17Cl-1 cells; concentration 0.03,100
same,"cell viability, Figures S9A, B, D-F",17Cl-1 cells; concentration 0.1,100
same,"cell viability, Figures S9A, B, D-F",17Cl-1 cells; concentration 0.3,100
same,"cell viability, Figures S9A, B, D-F",17Cl-1 cells; concentration 1,100
same,"cell viability, Figures S9A, B, D-F",17Cl-1 cells; concentration 3,100
same,"cell viability, Figures S9A, B, D-F",17Cl-1 cells; concentration 10,100
same,"cell viability, Figures S9A, B, D-F",17Cl-1 cells; concentration 25,103.896
same,"viability of infected cells (rescue of cytopathic effect), Figures S9G-L",MHV [1]; concentration 10,50.187 and 47.1573 and 49.7662
same,"viability of infected cells (rescue of cytopathic effect), Figures S9G-L",MHV [1]; concentration 30,52.4593 and 51.6738 and 47.1012
same,"viability of infected cells (rescue of cytopathic effect), Figures S9G-L",MHV [1]; concentration 100,53.2448 and 47.1573 and 49.2052
same,"viability of infected cells (rescue of cytopathic effect), Figures S9G-L",MHV [1]; concentration 300,49.4576 and 49.4296 and 47.5781
same,"viability of infected cells (rescue of cytopathic effect), Figures S9G-L",MHV [1]; concentration 1000,50.0187 and 48.055 and 47.0451
same,"viability of infected cells (rescue of cytopathic effect), Figures S9G-L",MHV [1]; concentration 3000,52.3191 and 51.9824 and 49.121
same,"viability of infected cells (rescue of cytopathic effect), Figures S9G-L",MHV [1]; concentration 10000,58.7432 and 53.4412 and 53.7217
same,"viability of infected cells (rescue of cytopathic effect), Figures S9G-L",MHV [1]; concentration 25000,59.3884 and 60.7069 and 59.0799
COc1ccc(N)cn1 [5-amino-2-methoxypyridine],pIC50,hHgs 1-390 protein [2],5.47
same,Polarization,hHgs 1-390 protein [3]; 0.00610352 uM,137
same,Polarization,hHgs 1-390 protein [3]; 0.0244141 uM,154 and 132
same,Polarization,hHgs 1-390 protein [3]; 0.0976562 uM,127 and 143
same,Polarization,hHgs 1-390 protein [3]; 0.390625 uM,133 and 129
same,Polarization,hHgs 1-390 protein [3]; 1.5625 uM,103 and 111
same,Polarization,hHgs 1-390 protein [3]; 6.25 uM,88 and 79
same,Polarization,hHgs 1-390 protein [3]; 25 uM,61
same,Polarization,hHgs 1-390 protein [3]; 100 uM,51 and 48
"C[C@H]1CCC/C=C/[C@@H]2C[C@H](O)C[C@H]2[C@H](O)/C=C/C(=O)O1 [BFA, Brefeldin A]",Colocalization of M protein with ERGIC53,M protein; 5h BFA washout,0.876 and 0.833 and 0.817
same,Colocalization of M protein with SEC61B,M protein; 5h BFA washout,0.423 and 0.481 and 0.508
same,"ERGIC53 (colocalization value, Figure S5B)",M protein; 5h BFA washout,0.399 and 0.424 and 0.407
same,"SEC61B (colocalization value, Figure S5B)",M protein; 5h BFA washout,0.895 and 0.946 and 0.906
same,Colocalization of M protein with ERGIC53,M protein; BFA treatment,0.305 and 0.466 and 0.315
same,Colocalization of M protein with SEC61B,M protein; BFA treatment,0.951 and 0.905 and 0.916
same,"ERGIC53 (colocalization value, Figure S5B)",M protein; BFA treatment,0.418 and 0.389 and 0.288
same,"SEC61B (colocalization value, Figure S5B)",M protein; BFA treatment,0.951 and 0.926 and 0.886
same,ER export of M protein,"M protein; WT 17Cl-1 cells, 5 µg/mL BFA, 40 min",effectively blocked
CC(C)C(=O)OC[C@H]1O[C@@H](n2ccc(NO)nc2=O)[C@H](O)[C@@H]1O [Molnupiravir],"Inhibition, combination matrix (Figure S12C)",MHV [4]; Molnupiravir 0.01 uM,-6.464
same,"Inhibition, combination matrix (Figure S12C)",MHV [4]; Molnupiravir 0.03 uM,-1.441
same,"Inhibition, combination matrix (Figure S12C)",MHV [4]; Molnupiravir 0.1 uM,-1.4813
same,"Inhibition, combination matrix (Figure S12C)",MHV [4]; Molnupiravir 0.3 uM,3.455
same,"Inhibition, combination matrix (Figure S12C)",MHV [4]; Molnupiravir 1 uM,0.7848
same,"Inhibition, combination matrix (Figure S12C)",MHV [4]; Molnupiravir 3 uM,9.711
same,"Inhibition, combination matrix (Figure S12C)",MHV [4]; Molnupiravir 10 uM,41.7804
same,"Inhibition, combination matrix (Figure S12C)",MHV [4]; Molnupiravir 25 uM,66.457
same,Survival curves: per-mouse event code,"SARS-CoV-2 Omicron BA.5; mouse, in vivo",0
same,body weight relative to start (Figure 5N),"SARS-CoV-2 Omicron BA.5; mouse, in vivo",100
same,"pathological severity scores, lung tissues","SARS-CoV-2 Omicron BA.5; mouse, in vivo",2 and 1
same,body weight relative to start (Figure 5N),SARS-CoV-2 Omicron BA.5; time 3,98.8156 and 99.095 and 100.646 and 100.079 and 100.862 and 100.376 and 98.4711 and 101.287
same,body weight relative to start (Figure 5N),SARS-CoV-2 Omicron BA.5; time 5,100.79 and 100.302 and 100.727 and 102.248 and 100.911 and 101.609 and 100.096 and 100.919
same,body weight relative to start (Figure 5N),SARS-CoV-2 Omicron BA.5; time 8,102.338 and 103.472 and 103.062 and 103.016 and 101.448 and 100.239 and 100.322
same,body weight relative to start (Figure 5N),SARS-CoV-2 Omicron BA.5; time 10,102.338 and 103.472 and 103.062 and 103.016 and 101.448 and 100.239 and 100.322
CC(C)(C)[C@H](NC(=O)C(F)(F)F)C(=O)N1C[C@H]2[C@@H]([C@H]1C(=O)N[C@H](C#N)C[C@@H]1CCNC1=O)C2(C)C [nirmatrelvir],"Inhibition, combination matrix (Figure S12D)",MHV [4]; nirmatrelvir 0.01 uM,-1.274
same,"Inhibition, combination matrix (Figure S12D)",MHV [4]; nirmatrelvir 0.03 uM,3.148
same,"Inhibition, combination matrix (Figure S12D)",MHV [4]; nirmatrelvir 0.1 uM,7.328
same,"Inhibition, combination matrix (Figure S12D)",MHV [4]; nirmatrelvir 0.3 uM,49.1912
same,"Inhibition, combination matrix (Figure S12D)",MHV [4]; nirmatrelvir 1 uM,73.8207
same,"Inhibition, combination matrix (Figure S12D)",MHV [4]; nirmatrelvir 3 uM,76.6195
same,"Inhibition, combination matrix (Figure S12D)",MHV [4]; nirmatrelvir 10 uM,79.1661
same,"Inhibition, combination matrix (Figure S12D)",MHV [4]; nirmatrelvir 25 uM,76.9584
"GAIRLHGRLIVAGIVLESEQPPRRRQRRKKRG (also: D-retroinverso) [M161-DRI, M161 modified with d-retroinverso (DRI) isoform]","readout per mouse, Figure S8P (quantity not given)",MHV [5],70 and 160 and 190 and 40 and 290 and 100
same,"score per mouse, Figure S8Q",MHV [5],1 and 0
same,lung injury (histology),"MHV [5]; mouse, iv, 15 mg/kg",alleviated
same,viral gRNA in the lung,"MHV [5]; mouse, iv, 15 mg/kg",significantly decreased
same,virus titer in the lung (plaque assay),"MHV [5]; mouse, iv, 15 mg/kg",significantly decreased
GRKKRRQRRRPPQDYKDDDDK [FLAG],"cell viability, Figure S7E",17Cl-1 cells; peptide concentration 1000,98.8246 and 101.437
same,"cell viability, Figure S7E",17Cl-1 cells; peptide concentration 4000,100.566 and 104.919
same,"cell viability, Figure S7E",17Cl-1 cells; peptide concentration 8000,94.9064
same,"cell viability, Figure S7E",17Cl-1 cells; peptide concentration 10000,94.471 and 89.2468
same,"cell viability, Figure S7E",17Cl-1 cells; peptide concentration 20000,89.6822
same,"cell viability, Figure S7E",17Cl-1 cells; peptide concentration 40000,87.0701 and 87.9408
same,"cell viability, Figure S7E",17Cl-1 cells; peptide concentration 60000,91.4236 and 94.9064
same,"cell viability, Figure S7E",17Cl-1 cells; peptide concentration 80000,90.9882 and 92.2943
same,"cell viability, Figure S7E",17Cl-1 cells; peptide concentration 100000,101.001 and 93.6003
same,"cell viability, Figure S7E",17Cl-1 cells; peptide concentration 200000,85.764
same,viability at 24 h,in vitro [6]; peptide concentration 1000,94.8%
same,viability at 24 h,in vitro [6]; peptide concentration 2000,101%
same,viability at 24 h,in vitro [6]; peptide concentration 4000,102%
same,viability at 24 h,in vitro [6]; peptide concentration 6000,106%
same,viability at 24 h,in vitro [6]; peptide concentration 8000,102%
same,viability at 24 h,in vitro [6]; peptide concentration 10000,105%
same,viability at 24 h,in vitro [6]; peptide concentration 50000,102%
same,viability at 24 h,in vitro [6]; peptide concentration 100000,105%
same,viability at 24 h,in vitro [6]; peptide concentration 400000,95.8%
same,viability at 24 h,in vitro [6]; peptide concentration 800000,101%
same,"cell viability, Figure S7G",Calu-3 cells; peptide concentration 1000,98.6281 and 97.5158
same,"cell viability, Figure S7G",Calu-3 cells; peptide concentration 5000,94.1787 and 96.4034
same,"cell viability, Figure S7G",Calu-3 cells; peptide concentration 10000,96.4034 and 97.8865
same,"cell viability, Figure S7G",Calu-3 cells; peptide concentration 20000,94.9203 and 96.4034
same,"cell viability, Figure S7G",Calu-3 cells; peptide concentration 40000,95.6618 and 97.5158
same,"cell viability, Figure S7G",Calu-3 cells; peptide concentration 60000,97.5158 and 96.0326
same,"cell viability, Figure S7G",Calu-3 cells; peptide concentration 80000,96.4034
same,"cell viability, Figure S7G",Calu-3 cells; peptide concentration 100000,97.8865
same,"cell viability, Figure S7G",Calu-3 cells; peptide concentration 400000,98.6281 and 97.5158
same,"cell viability, Figure S7G",Calu-3 cells; peptide concentration 800000,99.7405 and 96.0326
same,"cell viability, Figure S7F",Vero E6 cells; peptide concentration 1000,96.8531 and 94.4056
same,"cell viability, Figure S7F",Vero E6 cells; peptide concentration 2000,104.196 and 103.846
same,"cell viability, Figure S7F",Vero E6 cells; peptide concentration 4000,104.895
same,"cell viability, Figure S7F",Vero E6 cells; peptide concentration 6000,106.643 and 105.594
same,"cell viability, Figure S7F",Vero E6 cells; peptide concentration 8000,101.049 and 100.35
same,"cell viability, Figure S7F",Vero E6 cells; peptide concentration 10000,105.594
same,"cell viability, Figure S7F",Vero E6 cells; peptide concentration 50000,101.049 and 103.497
same,"cell viability, Figure S7F",Vero E6 cells; peptide concentration 400000,94.0559 and 93.7063
same,"cell viability, Figure S7F",Vero E6 cells; peptide concentration 800000,102.448
same,viability at 24 h,in vitro [7]; peptide concentration 1000,99.7%
same,viability at 24 h,in vitro [7]; peptide concentration 4000,102%
same,viability at 24 h,in vitro [7]; peptide concentration 8000,98%
same,viability at 24 h,in vitro [7]; peptide concentration 10000,97.5%
same,viability at 24 h,in vitro [7]; peptide concentration 20000,94%
same,viability at 24 h,in vitro [7]; peptide concentration 40000,78.8%
same,viability at 24 h,in vitro [7]; peptide concentration 60000,98.4%
same,viability at 24 h,in vitro [7]; peptide concentration 80000,84.5%
same,viability at 24 h,in vitro [7]; peptide concentration 100000,88.8%
same,viability at 24 h,in vitro [7]; peptide concentration 200000,84.9%
same,viability at 24 h,in vitro [8]; peptide concentration 1000,92%
same,viability at 24 h,in vitro [8]; peptide concentration 5000,88.6%
same,viability at 24 h,in vitro [8]; peptide concentration 10000,92%
same,viability at 24 h,in vitro [8]; peptide concentration 20000,89%
same,viability at 24 h,in vitro [8]; peptide concentration 40000,93.4%
same,viability at 24 h,in vitro [8]; peptide concentration 60000,90.5%
same,viability at 24 h,in vitro [8]; peptide concentration 80000,94.5%
same,viability at 24 h,in vitro [8]; peptide concentration 100000,94.2%
same,viability at 24 h,in vitro [8]; peptide concentration 400000,100%
same,viability at 24 h,in vitro [8]; peptide concentration 800000,96.8%
